Assay results as given in patent publication US6352996B1, “Liposomal prodrugs comprising derivatives of camptothecin and methods of treating cancer using these prodrugs” (priority 1999, dated 2002).
Read-outs that look alike come from different tables or passages of the source.

How the values were obtained:
CLO breast carcinoma = assay: Human breast carcinoma CLO xenograft in nude mice; type: in vivo; conditions: 8 mg/kg intramuscular twice a week, day 55 (FIG. 16)
Description: Swiss nude mice of the NIH high fertility strain were bred and maintained pathogen-free in a laboratory. (Giovanella, B. C. and Stehlin, J. S. “Heterotransplantation of human malignant tumors in ‘nude’ thymusless mice. I. Breeding and maintenance of ‘nude’ mice.” J. Natl. Cancer Inst. 51: 615-619; 1973.)
Human malignant carcinomas of the colon, breast, lung, ovary, stomach, pancreas, bladder, prostate, osteosarcoma and malignant melanomas were heterotransplanted directly from patients into the nude mice and passaged serially. In particular, the tumors CLO, MUR, CAS, SW 48, SQU and BRO as described in Giovanella, B. C., Stehlin, J. S., Shepard, R. C. and Williams, L. J. “Correlation between response to chemotherapy of human tumors in patients and in nude mice.” Cancer 52: 1146-1152; 1983, tumor SCH as described in Heim, S., Mandahl, N., Arheden, K., Giovanella, B. C., Yim, S. O., Stehlin, J. S., Jr. and Mitebman, F. “Multiple karyotypic abnormalities including structural rearrangements of 11P in cell lines from malignant melanomas.” Cancer Genet. Cytogent, 35:5-20; 1988, and Verschraegen, C., Ciovanella, B. C., Mendoza, J. T., Kozielski, A. J. and Stehlin, J. S., Jr. “Specific organ metastases of human melanoma cells injected into the arterial circulation of nude mice.” Anticancer Res., In Press, and tumor PC-3 as described in Invest. Urol. 17, 16-23, 1979, were used. […]

U-937 cells = assay: Growth inhibition of U-937 cells treated with CPT esters; type: cell-based; conditions: 0.2 μM, 120 hr, percent of exponential growth of untreated cells (100%), mean of four estimates
Description: Growth inhibition of U-937 cells treated with various CPT esters.
Each identified compound was added to reach a culture of U-937 cell having a final concentration of 0.2 μM. The treatment time was for 120 hr. Growth inhibition in each of the treated cultures was then estimated as a percent of the exponential growth of the cells that was considered 100%. Each estimate was the mean value of four estimates.

[1] = Changes of body weights of mice during the test time period (toxicity); type: in vivo; conditions: nude mice
Description: The preferred derivatives display significant antitumor activity with much lower toxicity than their parent camptothecin, CPT. The animal experimental data for these new derivatives were collected. Camptothecin 20(S) propioniate (where R1 is ethyl and R2 is H) is designated as Prodrug 2 and taken as a example to disclose some in vivo experimental data. FIG. 6 represents the antitumor activity of this compound in different doses against the implanted human breast carcinoma (CLO) in nude mice. The change of body weight of mice is recorded with the time.

[2] = Stability of lactone form in human plasma; type: in vitro ADME; conditions: for Percent in plasma (lactone, percent of the initial lactone amount added): 1 μg/ml
Description: CPT or SF6A lactone was added to human plasma (1 μg/ml) and an incubation and lactone determination were made as described in Example 15. The lactone amount at each time-point was detected after removing the carboxylate form, and subsequently was calculated as percent of the initial lactone amount added. The results shown in this Table below were derived from one of the three independent experiments performed using different incubation times. The pattern of quantitation of the lactones was similar in all three experiments.

[3] = Closed lactone form in human plasma after oral administration; conditions: for % present as closed lactone form in human blood/plasma: after oral administration (FIGS. 2, 4, 5, 7, 8)
[4] = mouse liver homogenate, 2 μg SF6A/ml, 37° C.
Description: Determination of SF6A (Prodrug 2) and CPT in liver homogenate.
Mouse liver was homogenized in 4 volumes of ice-cold 0.15 M KCl with the aid of a Dounce homogenizer, then centrifuged at 15000 G for 10 min to remove particulate material. The supernatant, designated as liver homogenate, was transferred into a capped polypropylene tube, mixed with 2 μg SF6A/ml and incubated in a 37° C. water-bath. At the desired times, samples were removed and mixed with 4 volumes of ice-cold ethanol to precipitate proteins. The samples were stored at −20° C. until all were collected. Following centrifugation at 15000 G for 10 min, the clarified supernatants were subjected to analysis for determination of SF6A and CPT lactones by high pressure liquid chromatography (HPLC). The compounds were detected by fluorescence spectroscopy setting the excitation and emission wavelengths at 347 nm and 418 nm, respectively. CPT and SF6A have characteristic retention times of 3.5 min and 13.5 min, respectively.

human tumor xenografts [5] = test system: human tumor xenografts
[6] = Closed lactone form in plasma of mice after intrastomach administration; type: in vivo; conditions: after i.s. administration, mouse (FIG. 3)
human malignancies = assay: Clinical responses in Phase I clinical trial patients; type: in vivo; conditions: in humans
human tumor xenografts [7] = conditions: in mice; cited from earlier work

With CCC1(OC(=O)C2OC2C)C(=O)OCc2c1cc1n(c2=O)Cc2cc3ccccc3nc2-1 (stereo not drawn) [Compound IC, Camptothecin 20-O-2′, 3′-epoxy-butyrate] the tumor size (CLO breast carcinoma) was “stabilize the tumor size after a certain amount of time”.

With CCC(=O)O[C@]1(CC)C(=O)OCc2c1cc1n(c2=O)Cc2cc3ccccc3nc2-1 [Prodrug 2, Camptothecin 20-O-propionate] the Growth % (U-937 cells) was 31 ± 2%, the Body weight ([1]; dose 5 mg/kg, day 21) was 21/33 gms and the Body weight ([1]; dose 5 mg/kg, day 27) was 27/33.7 gms. The Body weight ([1]; dose 5 mg/kg, day 34) was 34/34.3 gms, the Body weight ([1]; dose 5 mg/kg, day 41) was 41/33.5 gms and the Body weight ([1]; dose 5 mg/kg, day 48) was 48/32.9 gms. The Body weight ([1]; dose 5 mg/kg, day 56) was 56/33.2 gms, the Body weight ([1]; dose 6 mg/kg, day 21) was 21/32.9 gms and the Body weight ([1]; dose 6 mg/kg, day 27) was 27/33.4 gms. The Body weight ([1]; dose 6 mg/kg, day 34) was 34/33.8 gms, the Body weight ([1]; dose 6 mg/kg, day 41) was 41/33.5 gms and the Body weight ([1]; dose 6 mg/kg, day 48) was 48/34.0 gms. For the same compound, the Body weight ([1]; dose 6 mg/kg, day 56) was 56/32.2 gms, the Body weight ([1]; dose 7 mg/kg, day 21) was 21/30.8 gms and the Body weight ([1]; dose 7 mg/kg, day 27) was 27/31.7 gms. For the same compound, the Body weight ([1]; dose 7 mg/kg, day 34) was 34/30.6 gms, the Body weight ([1]; dose 7 mg/kg, day 41) was 41/31.1 gms and the Body weight ([1]; dose 7 mg/kg, day 48) was 48/31.6 gms. The Body weight ([1]; dose 7 mg/kg, day 56) was 56/31.5 gms, the Body weight ([1]; dose 8 mg/kg, day 21) was 21/32.9 gms and the Body weight ([1]; dose 8 mg/kg, day 27) was 27/34.1 gms. For the same compound, the Body weight ([1]; dose 8 mg/kg, day 34) was 34/34.0 gms, the Body weight ([1]; dose 8 mg/kg, day 41) was 41/33.4 gms and the Body weight ([1]; dose 8 mg/kg, day 48) was 48/33.9 gms. For the same compound, the Body weight ([1]; dose 8 mg/kg, day 56) was 56/33.2 gms, the “change of body weight of mice during the test time period” value ([1]; doses 5-8 mg/kg) was “no losses of mice body weights” and the “Lactone % in Human Plasma” value ([2]; Time 0 Hr) was 100%. For the same compound, the “Lactone % in Human Plasma” value ([2]; Time 1 Hr) was 86%, the “Lactone % in Human Plasma” value ([2]; Time 2 Hr) was 77% and the “Lactone % in Human Plasma” value ([2]; Time 4 Hr) was 68%. For the same compound, the “Lactone % in Human Plasma” value ([2]; Time 6 Hr) was 56%, the “time the lactone ring remained intact, versus CPT” value ([2]; human plasma) was “much longer” and the “Percent in plasma (lactone, percent of the initial lactone amount added)” value (“Percent in plasma” below) ([2]; human plasma, incubation time 0.0 hr) was 100.0%. For the same compound, the “Percent in plasma” value ([2]; human plasma, incubation time 1.0 hr) was 86.0%, the “Percent in plasma” value ([2]; human plasma, incubation time 2.0 hr) was 77.0% and the “Percent in plasma” value ([2]; human plasma, incubation time 4.0 hr) was 68.0%. For the same compound, the “Percent in plasma” value ([2]; human plasma, incubation time 6.0 hr) was 56.0%, the “Percent in plasma” value ([2]; human plasma, incubation time 27.0 hr) was 9.0% and the “% present as closed lactone form in human blood/plasma” value [3] was 2.8%. The “increase of lactone share over the parent compound” value ([3]; human, oral administration, versus CPT or 9NC) was “sevenfold”, the “Amount determined: CPT (formed from SF6A)” value (shortened to “Amount determined: CPT”) ([4]; incubation 0 min) was 0.00 µg/mL and the “Amount determined: SF6A” value ([4]; incubation 0 min) was 1.95 µg/mL. For the same compound, the “Amount determined: CPT” value ([4]; incubation 10 min) was 0.00 µg/mL, the “Amount determined: SF6A” value ([4]; incubation 10 min) was 2.06 µg/mL and the “Amount determined: CPT” value ([4]; incubation 60 min) was 0.00 µg/mL. For the same compound, the “Amount determined: SF6A” value ([4]; incubation 60 min) was 2.05 µg/mL, the “Amount determined: CPT” value ([4]; incubation 6 hr) was 0.00 µg/mL and the “Amount determined: SF6A” value ([4]; incubation 6 hr) was 2.05 µg/mL. For the same compound, the “Amount determined: CPT” value ([4]; incubation 24 hr) was 0.47 µg/mL, the “Amount determined: SF6A” value ([4]; incubation 24 hr) was 0.96 µg/mL and the “Amount determined: CPT” value ([4]; incubation 48 hr) was 0.30 µg/mL. For the same compound, the “Amount determined: SF6A” value ([4]; incubation 48 hr) was 0.90 µg/mL, the toxicity (human tumor xenografts [5]; mice) was “exceptional lack of toxicity, even at enormous doses in mice” and the “antitumor activity against xenografts of human tumors” value (human tumor xenografts [5]; nude mice) was “exhibits antitumor activity against human tumor xenografts”.

In the case of CC[C@@]1(OC(C)=O)C(=O)OCc2c1cc1n(c2=O)Cc2cc3ccccc3nc2-1 [CPT-acetate], the Growth % (U-937 cells) is reported as 92 ± 4%.

For CC=CC(=O)OC1(CC)C(=O)OCc2c1cc1n(c2=O)Cc2cc3ccccc3nc2-1 (stereo not drawn) [Compound IB, Camptothecin 20-O crotonate], the tumor size (CLO breast carcinoma) was “actually reducing the tumor size”.

With CC[C@@]1(O)C(=O)OCc2c1cc1n(c2=O)Cc2cc3c([N+](=O)[O-])cccc3nc2-1 [Example 9NC, 9-nitrocamptothecin, reference compound] the “drug present in the plasma in the closed lactone form” value [6] was 57%, the complete tumor regressions (human malignancies) was 2/32 and the “% present as closed lactone form in human blood/plasma” value [3] was about 3%. For the same compound, the “drug present in plasma in the closed lactone form” value ([3]; oral administration to Phase I clinical trial patients, on average (FIGS. 4 and 5)) was about 3%, the complete tumor regressions (human tumor xenografts [5]; in mice) was 32/32 and the “potency relative to CPT against human tumor xenografts” value (human tumor xenografts [7]) was 2-3 times.
